Measurements taken from patent publication US6046177A, “Sulfoalkyl ether cyclodextrin based controlled release solid pharmaceutical formulations” (Cydex, Inc., priority 1999, dated 2000).

Assays:
[1] = glibomuride-β-cyclodextrin complex vs. physical mixture; cited from earlier work
[2] = In vitro release of methylprednisolone and SBE7 β-CD from tablets (USP apparatus II); assay type: physicochemical
Protocol: The MP and SBE7 β-CD (present in a 1:7 molar ratio) along with a pharmaceutical carrier were compressed into a solid core which was spray coated with a mixture of ethylcellulose, PEG3350, PEG400 and ethanol to form a 140 μm thick film coating around the solid core. The dissolution profile was determined using USP dissolution apparatus II (100 rpm, 37° C.) and an HPLC assay for methylprednisolone (MP). […] The first formulation, indicated in FIG. 1 by the hollow circles, contains the separately preformed MP-SBE7 β CD freeze-dried complex. The second formulation, indicated by the filled in circles, contains a major portion of uncomplexed MP as a physical mixture with SBE7 β-CD. The third formulation, indicate by the squares, contains a physical mixture of lactose, fructose and MP.
The tablet core was prepared with a 1/7 molar ratio of methylprednisolone/(SBE)7 -β-CD. This ratio was calculated using the previously determined binding constant in order to have sufficient (SBE)7 -β-CD in the tablet core to solubilize all the methylprednisolone present. […] The tablet core consisted of either the methylprednisolone-(SBE)7-β-CD complex or the physical mixture of the two compounds. The complex was prepared by freeze drying a methylprednisolone-(SBE)7 -β-CD solution (5-15% in (SBE)7-β-CD). Non (SBE)7 -β-CD containing tablets were also prepared. They consisted of a 1/7 ratio of methylprednisolone to a 50:50 (w/w) mixture of fructose and lactose (Fischer Scientific, N.J.). The mixtures were ground in a mortar and sieved through a 200 mesh (75 μm) screen under low humidity conditions. The mixtures were stored in a dessicator when not used. Tablets of around 150 mg were compressed into the dissolution die using a Carver Laboratory Press (Fred S. Carver Inc., N.J.) at 1 ton during 1 min.
The coating formulation was prepared by mixing 4.5% of ethylcellulose (Ethocel Standard 10 Premium, Dow Chemicals, Mich.) with an equivalent amount of poly(ethylene glycol) 3350 (PEG 3350, Sigma, MO). 0.9% of PEG 400 (Sigma, MO) and 90.1% of absolute ethanol were added to the mixture. The dispersion was shaken and sonicated until complete dissolution of the solid components. The coating solution was air sprayed (Airbrush, Paasche) on a Teflon surface under constant air flow (40° C.). At the end of the spraying, the membranes were dried under the 40° C. air flow for 5 min. They were then left at room temperature during 24 hours. The membranes were peeled off the Teflon surface, checked for cracks and flaws under a light microscope (X70) and their thickness was measured using a micrometer (Ames, Mass.). The membranes were then secured on the dissolution die containing the tablet, with the face which was sprayed on the Teflon in contact with the tablet surface.
The release studies were realized by placing the dissolution die in a USP dissolution apparatus II (Vanderkamp 600, VanKel Industries Inc.) containing 350 ml of water at 37° C., 100 rpm. Samples were collected at various time points. The 100% release was determined by removing the membrane from the die and allowing the drug dissolution to be complete.

[3] = Release of methylprednisolone from tablets with […] RS/RL coating without pore forming agent (FIG. 15); assay type: physicochemical; details: Eudragit RS:RL 9 to 1, approximately 5 wt.% coating
Excerpt: As previously mentioned, it is not required that a pharmaceutical formulation according to the invention comprise a coated core wherein the coat comprises a film forming agent and a pore forming agent. […] In this formulation, the coat comprises a combination of Eudragit™ RS and Eudragit™ RL in a 9 to 1 weight ratio and the coating on the core of the tablet comprises approximately 5 wt.% of the total weight of the tablet. Accordingly, the present invention also provides controlled release pharmaceutical formulations consisting essentially of a core surrounded by a coat which comprises a film forming agent wherein the coat controls the rate of delivery of the drug even absent a pore forming agent in the coating.
The above formulation was prepared by first reducing the particle size of the SBE7 -βCD with a wedgewood mortar and pestle and then passing the powder through a 100 mesh screen. The sodium stearyl fumarate was also sieved through a 100 mesh screen prior to use. The SBE7 -βCD and MP were blended together geometrically in a glass mortar. The CEOLUS™, SUPERTAB™, PRUV™ components were then added in order in sequential steps while mixing. Tablets weighing approximately 250 mg each were compressed by hand on a Stokes B2 tablet press using 7 mm standard cup concave toolings. The tablets were compressed to a hardness of approximately 14 kp. […]

[4] = In vitro release of testosterone from tablets (USP apparatus II); assay type: physicochemical; details: 1:1 molar TST:SBE7 β-CD; sorbitol/PEG 400/cellulose acetate film; FIG. 8
Protocol: (FIG. 8) The solid core of the tablet comprised a 1:1 molar ratio of TST and SBE7 β-CD. The film coating of this tablet comprised sorbitol, PEG 400 and cellulose acetate. The release profiles of the physical mixture and complex formulation were compared to that of a baseline TST/fructose-lactose formulation.
The tablet core was prepared with a 1/1 molar ratio of testosterone/(SBE)7 -β-CD. The tablet core consisted of either the testosterone-(SBE)7 -β-CD complex or the physical mixture of the two compounds. The complex was prepared by freeze-drying a testosterone-(SBE)7 -β-CD solution (5-15% in (SBE)7m -β-CD). Non (SBE)7 -β-CD containing tablets were also prepared. […]
Semi-permeable Membrane Preparation The coating formulation was prepared by dissolving 1.0% of sorbitol (Sigma, MO) in 3.7% of double distilled water and 0.4% of PEG 400 (Sigma, MO). […] The membranes were peeled off the surface, checked for cracks and flaws under a light microscope (X70) and their thickness was measured using a Micrometer (Ames, Mass.). […]
The release studies were realized by placing the dissolution die in a USP dissolution apparatus II (Vanderkamp 600, VanKel Industries Inc.) containing 900 ml of water at 37° C., 100 rpm. […] The 100% release was determined by removing the membrane from the die and allowing the drug dissolution to be complete. The samples were analyzed by HPLC for testosterone concentration.

[5] = Release of testosterone from osmotic pumps; assay type: physicochemical; details: osmotic pump with (SBE)7m -β-CD vs. sugar mixture or HP-β-CD; FIG. 25
Protocol: For the preparation of cores, physical mixtures of TS with (SBE)7m -β-CD, HP-β-CD or sugar (physical mixture of lactose and fructose, 1/1) each containing 10 mg TS were compressed at 1 ton/cm^2 for 60 sec using a Carver™ Laboratory Press with a 6.35 mm flat faced punch. The molar ratios of TS to (SBE)7m -β-CD in the physical mixtures ranged from 1:1 to 1:1.43 and that in the physical mixture with HP-β-CD ranged from 1:1 to 1:1.79. The physical mixtures of TS with the β-CD derivatives or sugar were prepared using a mortar and a pestle. The compressed tablet core was placed in a tablet die as described above. […]
The dissolution and release rates of TS from core tablets (no membrane covering) or the osmotic pump devices (core tablets covered by a semipermeable membrane) were measured using a USP apparatus utilizing the paddle method. […] The amount of each osmotic pump agent, (SBE)7m -β-CD, HP-β-CD and sugar, released from the OPT was calculated by difference from the weight of the total ingredients released and the weight of the remaining released components at each sampling time in the study. […] The weight of the released osmotic agent was measured as a residual weight after evaporating and vacuum drying a 200 ml solution sample for 12 hr at 60° C. […]

For `Cc1ccc(S(=O)(=O)NC(=O)NC2C3CCC(C)(C2O)C3(C)C)cc1` (stereo not shown) [glibomuride], the “bioavailability of complex vs. physical mixture” value [1] is listed as “two to three fold better”.

In the case of `C[C@H]1C[C@@H]2[C@H]([C@@H](O)C[C@@]3(C)[C@H]2CC[C@]3(O)C(=O)CO)[C@@]2(C)C=CC(=O)C=C12` [methylprednisolone], the “release profile, MP vs. SBE7 β-CD” value ([2]; 140 μm film, FIG. 2a, 2b) is reported as “substantially the same release profiles”, the “release profile, physical mixture vs. freeze dried complex” value ([2]; 200 μm film, FIG. 3a, 3b) is reported as “a slight difference was noted in the release profiles of the physical mixture versus the freeze dried complex” and the “release profile, physical mixture vs. preformed complex” value ([2]; MP:SBE7 β-CD 1:7 molar, 140 μm ethylcellulose/PEG film, FIG. 1, 2) is reported as “release profile similar to or substantially similar to the former”. For the same compound, the “effect of MP/SBE7 β-CD ratio on release” value ([2]; film coated tablets, ratios 1/10, 1/7, 1/3, FIG. 7a-7d) was “decreasing the relative amount of SBE7 β-CD decreases the observed release profile for MP”, the “release profile, physical mixture vs. complex, uncoated core” value ([2]; no film, FIG. 6) was “The physical mixture exhibits substantially the same release profiles as the complex” and the “release characteristics, physical mixture vs. freeze dried complex” value ([2]; ratios 1/10, 1/7, 1/3, FIG. 7a-7d) was “substantially the same release characteristics”. The “release of MP, coat without pore forming agent” value [3] was “MP is released from a tablet formulation”.

With `C[C@]12CC[C@H]3[C@@H](CCC4=CC(=O)CC[C@@]43C)[C@@H]1CC[C@@H]2O` [testosterone] the “release profile, physical mixture vs. freeze dried complex” value [4] was “exhibited the same release profile as the respective freeze dried mixture” and the “release from osmotic pumps” value [5] was “released a greater amount of TS and at a more acceptable rate than the osmotic pumps containing the sugar mixture or HP-β-CD”.
